According to PMC5403251 (Neuropharmacology, 2016):

Tests used:
[1] = system: 5-HT2A; conditions: in humans; ref Almaula et al., 1996; Pigott et al., 2012; Canal et al., 2013; cited from earlier work
[2] = system: 5-HT2A; conditions: in mice; ref Canal et al., 2013; cited from earlier work
[3] = system: C57BL/6J mice; assay: Discrete-trials temporal discrimination task; type: in vivo, mouse
[4] = system: 5-HT2A; conditions: ref Kehne et al., 1996; cited from earlier work
[5] = DOI 0.3 mg/kg IP, 10 min before session
[6] = DOI 1 mg/kg IP, 10 min before session
[7] = DOI 3 mg/kg IP, 10 min before session, dose-response experiment
[8] = M100907 blockade experiment: vehicle pretreatment, DOI 3 mg/kg IP
[9] = SB-242,084 blockade experiment: vehicle pretreatment, DOI 3 mg/kg IP
[10] = M100907 0.03 mg/kg SC, 10 min before session
[11] = M100907 0.1 mg/kg SC, 10 min before session
[12] = M100907 0.3 mg/kg SC, 10 min before session

## COc1cc(CC(C)N)c(OC)cc1I.Cl (stereo not drawn) [DOI, 1-(2,5-dimethoxy-4-iodophenyl)-2-aminopropane hydrochloride]
[1]
  Selectivity for 5-HT2A: ~ 5 fold
[2]
  Selectivity for 5-HT2A vs. 5-HT2C receptors: 12 fold
[3]; [5]
  Difference limen: 1.20 ± 0.12 s
  Slope (ε): 1.009±0.108
  T50: 6.36 ± 0.17 s
  Trials completed: 188.3±2.7
[3]; DOI 0.3 mg/kg IP, 10 min before session, mean±SEM
  Weber fraction: 0.192±0.022
[3]; [6]
  Difference limen: 1.29 ± 0.14 s
  Slope (ε): 0.968±0.133
  T50: 6.43 ± 0.13 s
  Trials completed: 174.6±5.4
  Weber fraction: 0.200±0.021
[3]; [7]
  Difference limen: 1.89 ± 0.14 s
  Slope (ε): 0.608±0.044
  T50: 7.08 ± 0.41 s
  Weber fraction: 0.275±0.030
[3]; DOI 3 mg/kg IP, 6.1, 7.8, 8.7 and 10.5 s after trial onset, dose-response experiment
  %B responding (proportional choice of lever B): significant reductions in %B responding
[3]; DOI 3 mg/kg IP, 6.9, 7.8, 9.6 and 10.5 s trials, M100907 blockade experiment
  %B responding (proportional choice of lever B): reduced %B responding
[3]; [8]
  Difference limen: 1.71 ± 0.14 s
  Slope (ε): 0.661±0.044
  T50: 7.35 ± 0.20 s
  Trials completed: 148.3±8.8
  Weber fraction: 0.233±0.018
[3]; [9]
  Difference limen: 1.74 ± 0.16 s
  Slope (ε): 0.713±0.101
  T50: 6.89 ± 0.31 s
  Trials completed: 142.5±8.8
  Weber fraction: 0.255±0.026
[3]; after drug treatment that reduced %B responding at long stimulus intervals
  Correct responding during the 10.5 s-trials: more than 80%

## COc1cccc([C@H](O)C2CCN(CCc3ccc(F)cc3)CC2)c1OC [M100907, (R)-(+)-α-(2,3-dimethoxyphenyl)-1-[2-(4-fluorophenyl)ethyl]-4-piperidinemethanol]
[2]
  Selectivity for 5-HT2A vs. 5-HT2C receptors: 165 fold
[4]
  Affinity for 5-HT2A: subnanomolar
  Fold lower affinity for 5-HT2C and α1 receptors than for 5-HT2A: at least 100 fold
[3]; M100907 0.03 mg/kg SC pretreatment, DOI 3 mg/kg IP
  Effect of pretreatment on the T50 increase produced by DOI: failed to completely block the T50 increase produced by DOI
[3]; M100907 0.03 mg/kg SC pretreatment, DOI 3 mg/kg IP, 6.9 and 10.5 s stimuli
  Effect of pretreatment on the response to DOI (%B responding): blocked the effect of DOI on %B responding
[3]; [10]
  Difference limen: 1.31 ± 0.25 s
  Slope (ε): 0.997±0.114
  T50: 6.42 ± 0.23 s
  Trials completed: 163.6±6.5
[3]; M100907 0.03 mg/kg SC, 10 min before session, mean±SEM
  Weber fraction: 0.214±0.051
[3]; [11]
  Difference limen: 1.48 ± 0.15 s
  Slope (ε): 0.791±0.070
  T50: 6.80 ± 0.37 s
  Trials completed: 155.4±7.4
[3]; M100907 0.1 mg/kg SC, 10 min before session, mean±SEM
  Weber fraction: 0.220±0.021
[3]; [12]
  Difference limen: 1.60 ± 0.20 s
  Slope (ε): 0.857±0.184
[3]; M100907 0.3 mg/kg SC, 10 min before session, 0.3 mg/kg
  T50: 7.71 ± 0.45 s
[3]; M100907 0.3 mg/kg SC, 10 min before session, mean±SEM
  Weber fraction: 0.206±0.021
